From article PMC3691235, “Discovery of a Novel Dual Fungal CYP51/Human 5-Lipoxygenase Inhibitor: Implications for Anti-Fungal Therapy” (PLoS ONE, 2013)

Key:
[1] = molecular target: T1, Human leukocyte 5-lipoxygenase (Homo sapiens, UniProt P09917); test: Lipoxygenase UV-based inhibitor assay, 5-LOX; type: biochemical; details: for IC50: UV-based assay, 10 µM AA, pH 7.3, crude enzyme, error = SD, read-out: 5-LOX IC50
T1 construct: made in house
T1 sequence (P09917 1-674): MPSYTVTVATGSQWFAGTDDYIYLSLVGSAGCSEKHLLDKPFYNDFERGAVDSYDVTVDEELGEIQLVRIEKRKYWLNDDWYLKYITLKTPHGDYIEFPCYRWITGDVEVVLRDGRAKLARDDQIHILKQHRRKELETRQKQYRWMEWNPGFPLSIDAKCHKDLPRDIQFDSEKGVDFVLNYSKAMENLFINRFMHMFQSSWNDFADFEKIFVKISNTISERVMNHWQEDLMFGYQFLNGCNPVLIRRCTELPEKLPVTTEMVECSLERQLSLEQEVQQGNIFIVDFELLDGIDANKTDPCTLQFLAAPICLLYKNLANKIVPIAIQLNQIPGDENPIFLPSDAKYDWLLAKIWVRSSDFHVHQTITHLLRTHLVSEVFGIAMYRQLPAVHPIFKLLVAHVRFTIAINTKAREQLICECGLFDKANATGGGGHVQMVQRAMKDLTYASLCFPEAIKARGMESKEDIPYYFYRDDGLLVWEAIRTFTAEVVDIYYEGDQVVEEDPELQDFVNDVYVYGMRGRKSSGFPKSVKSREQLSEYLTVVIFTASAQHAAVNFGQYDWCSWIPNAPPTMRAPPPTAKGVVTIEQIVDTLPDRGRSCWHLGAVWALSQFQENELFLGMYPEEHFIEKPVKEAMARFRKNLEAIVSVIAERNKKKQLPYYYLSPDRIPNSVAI
Method: (§1) Human leukocyte 5-lipoxygenase was expressed as a non-tagged protein and used as a crude ammonium sulfate protein fraction, as published previously.
(§2) Inhibitor potencies were evaluated through use of the standard UV-based inhibitor assay. The initial rates were determined by following the formation of the conjugated diene product at 234 nm (ε = 25,000 M^−1 cm^−1) with a Perkin-Elmer Lambda 40 UV/Vis spectrophotometer at one substrate concentration and varying inhibitor concentrations. All reactions were 2 mL in volume and constantly stirred using a magnetic stir bar at room temperature (23°C), with the enzyme specific buffer conditions outlined in Table 1. The substrate used for the various isozymes was arachidonic acid (AA) for 5-LOX, 12-LOX, and 15-LOX-2 and linoleic acid (LA) for 15-LOX-1, where concentrations were quantitatively determined by allowing the enzymatic reaction to go to completion. IC50 values were obtained by determining the initial rate at various inhibitor concentrations and plotting them against inhibitor concentration, followed by a hyperbolic saturation curve fit. The data used for the saturation curves were performed in duplicate or triplicate, depending on the quality of the data. […] Inhibitors were stored at −20°C in DMSO. […] The solvent isotope effect of the inhibitor IC50 was investigated utilizing the same conditions and methods as stated above. The pH of the buffered D2O was determined as reported previously.

5-LOX = molecular target: T2, 5-LOX (Homo sapiens, UniProt P09917); test: Pseudoperoxidase activity assay; type: biochemical; details: 10 µM inhibitor, 10 µM 13-HPODE, positive = loss of greater than 40% of product absorption at 234 nm
T2 construct: made in house
T2 sequence (P09917 1-674): T1 sequence (P09917 1-674)
Method: The reductive properties of the inhibitors were determined by monitoring the pseudoperoxidase activity of lipoxygenase in the presence of the inhibitor and 13-(S)-hydroperoxyoctadecadienoic acid (13-HPODE). Activity is monitored by direct measurement of the product degradation following the decrease of absorbance at 234 nm using a Perkin-Elmer Lambda 40 UV/Vis spectrometer (50 mM Sodium Phosphate (pH 7.4), 0.3 mM CaCl2, 0.1 mM EDTA, 0.01% Triton X100, 10 µM 13-HPODE). All reactions were performed in 2 mL of buffer and constantly stirred with a rotating stir bar (23°C). Reaction was initiated by addition of 10 µM inhibitor (a 1 to 1 ratio to 13-HPODE), and a positive result for activity reflected a loss of greater than 40% of product absorption at 234 nm.

[2] = molecular target: T3, human platelet 12-lipoxygenase (12-LOX) (Homo sapiens, UniProt P18054); test: Lipoxygenase UV-based inhibitor assay, 12-LOX; type: biochemical; details: 10 µM AA, pH 8.0
T3 construct: His6 (N); made in house
T3 sequence (P18054 1-663): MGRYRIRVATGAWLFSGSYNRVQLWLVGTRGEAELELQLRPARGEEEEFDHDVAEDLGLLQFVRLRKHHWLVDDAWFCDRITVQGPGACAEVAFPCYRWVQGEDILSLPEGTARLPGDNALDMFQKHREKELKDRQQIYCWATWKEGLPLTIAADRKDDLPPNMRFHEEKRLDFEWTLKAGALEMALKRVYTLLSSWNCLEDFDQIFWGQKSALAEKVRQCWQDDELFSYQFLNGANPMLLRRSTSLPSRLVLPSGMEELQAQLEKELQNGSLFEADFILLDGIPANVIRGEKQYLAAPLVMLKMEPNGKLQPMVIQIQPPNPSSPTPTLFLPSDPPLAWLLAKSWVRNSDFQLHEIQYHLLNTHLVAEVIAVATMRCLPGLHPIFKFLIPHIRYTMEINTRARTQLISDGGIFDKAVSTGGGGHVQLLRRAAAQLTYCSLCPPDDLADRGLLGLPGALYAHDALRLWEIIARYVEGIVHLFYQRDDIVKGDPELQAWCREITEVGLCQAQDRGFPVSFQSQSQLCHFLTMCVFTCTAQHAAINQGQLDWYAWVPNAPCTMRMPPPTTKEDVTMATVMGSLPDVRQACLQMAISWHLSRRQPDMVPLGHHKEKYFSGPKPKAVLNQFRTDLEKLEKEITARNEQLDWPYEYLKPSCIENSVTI
Method: as §1, §2

[3] = molecular target: T4, Human reticulocyte 15-lipoxygenase-1 (15-LOX-1) (Homo sapiens, UniProt P16050); test: Lipoxygenase UV-based inhibitor assay, 15-LOX-1; type: biochemical; details: 10 µM LA, pH 7.5
T4 construct: His6 (N); made in house
T4 sequence (P16050 1-662): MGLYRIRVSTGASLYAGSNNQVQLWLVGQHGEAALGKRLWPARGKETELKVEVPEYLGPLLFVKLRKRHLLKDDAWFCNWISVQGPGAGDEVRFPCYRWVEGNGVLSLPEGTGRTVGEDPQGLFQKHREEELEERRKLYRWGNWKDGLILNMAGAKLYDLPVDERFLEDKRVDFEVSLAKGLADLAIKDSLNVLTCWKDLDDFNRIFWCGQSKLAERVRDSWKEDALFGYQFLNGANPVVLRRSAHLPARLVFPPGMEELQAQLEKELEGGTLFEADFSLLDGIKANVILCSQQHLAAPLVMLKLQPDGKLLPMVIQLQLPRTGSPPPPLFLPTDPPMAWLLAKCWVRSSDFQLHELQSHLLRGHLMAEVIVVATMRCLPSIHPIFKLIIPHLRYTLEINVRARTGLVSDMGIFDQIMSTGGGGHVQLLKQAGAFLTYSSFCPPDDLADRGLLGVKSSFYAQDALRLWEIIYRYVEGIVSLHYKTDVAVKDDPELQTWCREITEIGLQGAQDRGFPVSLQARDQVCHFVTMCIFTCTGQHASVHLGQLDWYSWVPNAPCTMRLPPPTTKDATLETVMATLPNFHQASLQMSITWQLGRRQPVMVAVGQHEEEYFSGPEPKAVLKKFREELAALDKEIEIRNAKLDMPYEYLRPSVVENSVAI
Method: as §1, §2

[4] = molecular target: T5, human prostate epithelial 15-lipoxygenase-2 (15-LOX-2) (Homo sapiens, UniProt O15296); test: Lipoxygenase UV-based inhibitor assay, 15-LOX-2; type: biochemical; details: 30 µM AA, pH 7.5
T5 construct: His6 (N); made in house
T5 sequence (O15296 1-676): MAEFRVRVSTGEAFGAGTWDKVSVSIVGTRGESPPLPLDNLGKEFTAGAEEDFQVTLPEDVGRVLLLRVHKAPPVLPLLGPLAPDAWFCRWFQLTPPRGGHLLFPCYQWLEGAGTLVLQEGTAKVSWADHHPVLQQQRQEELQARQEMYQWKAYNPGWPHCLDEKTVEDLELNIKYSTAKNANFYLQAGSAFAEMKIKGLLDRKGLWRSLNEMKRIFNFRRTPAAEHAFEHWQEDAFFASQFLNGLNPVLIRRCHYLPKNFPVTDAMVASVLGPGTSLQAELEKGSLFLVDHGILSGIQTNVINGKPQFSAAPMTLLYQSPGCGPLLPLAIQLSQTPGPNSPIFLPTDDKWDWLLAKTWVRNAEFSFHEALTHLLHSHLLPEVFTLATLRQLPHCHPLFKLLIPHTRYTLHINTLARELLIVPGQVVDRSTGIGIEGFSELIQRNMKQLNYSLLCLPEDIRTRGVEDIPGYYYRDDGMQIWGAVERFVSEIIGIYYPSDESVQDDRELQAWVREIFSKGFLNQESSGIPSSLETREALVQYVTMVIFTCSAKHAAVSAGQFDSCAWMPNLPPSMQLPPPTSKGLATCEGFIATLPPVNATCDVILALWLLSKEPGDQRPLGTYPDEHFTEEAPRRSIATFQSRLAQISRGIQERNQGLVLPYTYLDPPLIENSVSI
Method: as §1, §2

[5] = system: LTB4 synthesis in whole human blood; test: Human blood LTB4 inhibition assay; type: cell-based; details: Homo sapiens, compounds at 10 µM, calcium ionophore stimulated, ELISA; error in parentheses
Method: Whole human blood was obtained from healthy volunteers from within the Student Health Center. These studies were approved by the UCSC Institutional Review Board (IRB) and informed consent was obtained from all donors before blood draw. The whole blood was dispensed in 150 µL samples followed by addition of inhibitor or control (vehicle, DMSO), and incubated for 15 min at 37°C. The mixture was then stimulated by introduction of the calcium ionophore, […], (freshly diluted from a 50 mM DMSO stock to 1.5 mM in Hanks balanced salt solution), and incubated for 30 min at 37°C. Samples were then centrifuged at 1,500 rpm (300 g) for 10 min at 4°C and the supernatant diluted between 20 and 50-fold (batch dependent) for LTB4 detection, using an ELISA detection kit (Cayman Chemicals Inc.).

[6] = molecular target: T6, Homo sapiens CYP51 (HsCYP51) (Homo sapiens, UniProt Q16850); set-up: method as in PMID 20149798; details: ref [40]; read-out: Kd with HsCYP51, previously reported; cited from earlier work
T6 construct: made in house; host or cells: E. coli
T6 sequence (Q16850 1-509): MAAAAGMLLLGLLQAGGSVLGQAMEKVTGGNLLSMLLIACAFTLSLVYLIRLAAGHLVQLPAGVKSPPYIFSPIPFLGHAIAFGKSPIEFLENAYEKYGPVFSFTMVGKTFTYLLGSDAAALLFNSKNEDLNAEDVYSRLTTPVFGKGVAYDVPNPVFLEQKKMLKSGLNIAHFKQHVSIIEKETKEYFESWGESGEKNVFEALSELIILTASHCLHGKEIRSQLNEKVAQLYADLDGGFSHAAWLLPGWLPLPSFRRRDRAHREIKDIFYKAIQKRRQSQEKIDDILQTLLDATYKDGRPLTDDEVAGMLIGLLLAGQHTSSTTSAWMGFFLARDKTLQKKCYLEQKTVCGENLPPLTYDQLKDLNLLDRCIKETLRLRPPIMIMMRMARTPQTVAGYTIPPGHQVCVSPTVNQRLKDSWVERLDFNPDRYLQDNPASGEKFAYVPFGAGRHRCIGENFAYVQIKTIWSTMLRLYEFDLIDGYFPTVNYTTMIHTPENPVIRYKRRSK

Row | SMILES | IC50 [1] | Reductive activity (pseudoperoxidase activity) (5-LOX) | further results
1 | CC(C)(C)OC(=O)N1CCC(c2ccc(NCc3ccc(-c4ccc(C#N)cc4)o3)cc2)CC1 [Compound 2] | > 150000 nM | No | 5-LOX inhibition, in words [1]: complete loss of inhibition
2 | CC(C)(C)OC(=O)N1CCN(c2ccc(OCc3ccc(-c4ccc(C#N)cc4)o3)cc2)CC1 [Compound 3] | > 150000 nM | No | 5-LOX inhibition, in words [1]: complete loss of inhibition
3 | CC(C)(C)OC(=O)N1CCN(c2ncc(NCc3ccc(-c4ccc(C#N)cc4)o3)cn2)CC1 [Compound 4] | > 150000 nM | No | 5-LOX inhibition, in words [1]: complete loss of inhibition
4 | CC(C)(C)OC(=O)N1CCN(c2cnc(NCc3ccc(-c4ccc(C#N)cc4)o3)nc2)CC1 [Compound 5] | > 150000 nM | No | 5-LOX inhibition, in words [1]: complete loss of inhibition
5 | CN(Cc1ccc(-c2ccc(C#N)cc2)o1)c1ccc(N2CCN(C(=O)OC(C)(C)C)CC2)cc1 [Compound 7] | 2700 nM | Yes | –
6 | CC(C)(C)OC(=O)N1CCN(c2ccc(NCc3cnc(-c4ccc(C#N)cc4)o3)cc2)CC1 [Compound 8] | 100 nM | – | –
7 | CC(C)(C)OC(=O)N1CCN(c2ccc(NCc3ncc(-c4ccc(C#N)cc4)o3)cc2)CC1 [Compound 9] | 1500 nM | – | –
8 | CC(C)(C)OC(=O)N1CCN(c2ccc(NCc3nnc(-c4ccc(C#N)cc4)o3)cc2)CC1 [Compound 10] | > 150000 nM | – | decrease in 5-LOX potency ([1]; relative to the other analogues of Figure 3): greater than 10 fold
9 | CC(=O)N1CCN(c2ccc(NCc3ccc(C)cc3)cc2)CC1 [Compound 11] | 1100 nM | – | –
10 | CC(=O)N1CCN(c2ccc(NCc3ccc(-c4ccc(Br)cc4)o3)cc2)CC1 [Compound 12] | 2600 nM | – | –
11 | Cc1ccc(CNc2ccc(N3CCCCC3)cc2)cc1 [Compound 15] | 600 nM | – | IC50 [2]: > 50000 nM; IC50 [3]: > 150000 nM; IC50 [4]: > 50000 nM; inhibition at 10 µM [5]: < 10%
12 | Clc1ccccc1C(c1ccccc1)(c1ccccc1)n1ccnc1 [clotrimazole] | – | – | Kd [6]: < 100 nM
13 | Clc1ccc(COC(Cn2ccnc2)c2ccc(Cl)cc2Cl)cc1 (stereo not shown) [econazole] | – | – | Kd [6]: < 100 nM
14 | CC(c1cc2ccccc2s1)N(O)C(N)=O (stereo not shown) [zileuton, reference compound] | – | reductive | IC50 [2]: > 150000 nM; IC50 [3]: > 50000 nM; Reductive activity (pseudoperoxidase activity) (5-LOX; listed as Zilueton): Yes
